# Measured values reported in paper PMC7381750, “JP1 suppresses proliferation and metastasis of melanoma through MEK1/2 mediated NEDD4L-SP1-Integrin αvβ3 signaling” (Theranostics, 2020).
# System: B16F10 cell
# Test: B16F10 melanoma-bearing model, JP1 and DTIC alone or in combination
# Format: in vivo, mouse
# Description: (A-C) (A) Schematic representation of the B16F10 and MEWO cells melanoma-bearing model for JP1 treatment (n = 6 per group). JP1 and its control agents were administered by intraperitoneal injection. […] (D-G) (D) Schematic representation of the B16F10 cell melanoma passive metastasis model for JP1 treatment. JP1 and its control agents were administered by intraperitoneal injection. […] (F) The representative melanoma lung metastatic images by H&E-staining (scale bars, 1000 μm). […] (J-L) (J) Schematic representation of the B16F10 cell melanoma-bearing model (n= 6 per group). Both JP1 and DTIC alone or in combination treatments and relative control was administered by intraperitoneal injection in mice.
# The chemotherapeutic agent dacarbazine (DTIC) is currently as the first line drug used to treat metastatic melanoma in clinic, and was reported to cause painful symptoms and acquired resistance, compromising patient quality of life. To determine the possibility as a combination therapy between DTIC and JP1, we completed a joint treatment of DTIC and JP1 for melanoma tumor-bearing model (Figure 2J).
compound,measurement,setting,value
"CN(C)/N=N/c1[nH]cnc1C(N)=O [DTIC, dacarbazine]",body weight during treatment,80 mg/kg DTIC i.p.,lost body weight continuously during treatment
same,inhibitory effect on melanoma proliferation,"80 mg/kg DTIC i.p., B16F10 melanoma-bearing mouse",more significant inhibitory effect on melanoma proliferation than that by 50 mg/kg JP1
same,liver HE staining,after DTIC treatment,significant degenerations in liver cells
